From US7129215B2, “Tripeptide and tetrapeptide thioethers” (Telik, Inc., priority 2005, dated 2006)
Where two headings read alike, the source gives them in different places. *1 amine or outer side, *2 acyl side, *3 side chain or, on linkers, in order; H or OH if unused. Where a SMILES comes first, the peptide text is derived from it. [ ]: non-standard residue; d: D form. The star is where a group is joined. γGlu = O=C(O)[C@H](CCC(=O)[*:2])N[*:1]; dPhg = N[C@@H](C(=O)O)c1ccccc1; Bn = c1ccc(C*)cc1

Key:
[1] = biological target: T1, Recombinant human GST A1-1 (Homo sapiens, UniProt P08263); experiment: Inhibition of glutathione S-transferase isoenzyme GST A1-1; type: biochemical
T1 construct: purchased EMD Biosciences, Inc., San Diego, Calif., U.S.A
T1 sequence (P08263 1-222): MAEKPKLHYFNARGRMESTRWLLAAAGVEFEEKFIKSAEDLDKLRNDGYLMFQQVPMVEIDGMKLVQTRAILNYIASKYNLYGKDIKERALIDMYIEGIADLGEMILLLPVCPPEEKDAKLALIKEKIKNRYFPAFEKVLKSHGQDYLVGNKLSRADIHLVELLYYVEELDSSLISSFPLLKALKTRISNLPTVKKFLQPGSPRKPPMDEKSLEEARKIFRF
Protocol: (§1) Inhibition of glutathione S-transferase isoenzymes.
(§2) For each assay, the test compound and GSH were added to the isoenzyme. Immediately after the addition of CDNB solution to the isoenzyme/compound/GSH solution, the absorbance at 340 nm was recorded continuously for 5 min on a SpectraMax plate reader (Molecular Devices, Inc., Sunnyvale, Calif., U.S.A.). The GST inhibitory activity of each compound was calculated from the slopes of the absorbance/time curves at the various concentrations of test compound. All assays were conducted in duplicate wells, with DMSO control, with the final DMSO concentration maintained at 2%.

[2] = biological target: T2, Recombinant human GST P1-1 (Homo sapiens, UniProt P09211); experiment: Inhibition of glutathione S-transferase isoenzyme GST P1-1; type: biochemical
T2 construct: purchased EMD Biosciences, Inc., San Diego, Calif., U.S.A
Protocol: as §1, §2

[3] = biological target: T3, Recombinant human GST M1-1 (Homo sapiens, UniProt P09488); experiment: Inhibition of glutathione S-transferase isoenzyme GST M1-1; type: biochemical
T3 construct: purchased EMD Biosciences, Inc., San Diego, Calif., U.S.A
T3 sequence (P09488 2-218 limits assumed): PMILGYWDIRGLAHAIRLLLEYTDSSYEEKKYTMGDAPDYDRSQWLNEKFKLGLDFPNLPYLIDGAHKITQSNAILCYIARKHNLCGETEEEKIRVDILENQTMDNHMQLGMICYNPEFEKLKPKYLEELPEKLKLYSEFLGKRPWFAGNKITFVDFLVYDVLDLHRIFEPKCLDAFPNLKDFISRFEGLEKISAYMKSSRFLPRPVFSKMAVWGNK
Protocol: as §1, §2

[4] = tested on: HL-60 human leukemia cell line; experiment: Cytotoxicity in HL-60 cells (CellTiter-Glo); conditions: read-out: HL-60 CC50 (concentration that causes 50% growth inhibition); diethyl ester compounds (1B to 12B, TLK199); 72 hours
Protocol: Cytotoxicity in HL-60 cells.
The cells were then incubated for 72 hours (approximately three doubling times). The cells were then harvested by centrifugation (1200 rpm for 5 min at 20° C.), and 100 μL of the culture supernatant was removed and replaced by the same volume of the CellTiter-Glo reagent. After incubation for 10 minutes at room temperature with constant mixing, the plate was read with a luminometer, with the number of live cells being proportional to the observed luminescence. All assays were conducted in triplicate wells, with DMSO solvent control.

[5] = Phase II, MDS, interim results; cited from earlier work
HL-60 cells [6] = conditions: background statement; cited from earlier work
[7] = tested on: hematopoietic progenitor cells; conditions: normal human peripheral blood; cited from earlier work
HL-60 cells [8] = experiment: Enhancement of differentiation of HL-60 cells (CD11b expression, flow cytometry); type: cell-based, human; conditions: diethyl ester compounds; 24 hours; CD11b expression vs DMSO control
Protocol: Some of the diethyl ester compounds of this invention were also tested for their ability to enhance the differentiation of HL-60 cells. This illustrates the beneficial effect of the compounds of this invention in stimulating differentiation of the HL-60 human leukemia cell line in vitro. […] The cells were harvested by centrifugation (1250 rpm for 5 min at 20° C.) and washed with 2 mL ice-cold phosphate-buffered saline (PBS) containing 2% FBS, then stained with 10 μL phycoerythrin-conjugated anti-CD11b antibody or 10 μL phycoerythrin-conjugated isotype control antibody. After standing for 30 min on ice, the cells were re-suspended in 2 mL ice-cold PBS containing 2% FBS. The cells were harvested by centrifugation (1250 rpm for 5 min at 20° C.) and resuspended in 0.4 mL PBS containing 2% FBS. The specific cell surface expression of CD11b, a marker for granulocytes and monocytes, was detected by flow cytometry using a FACSCalibur analyzer (BD Biosciences). All assays were conducted in triplicate, with DMSO control. The extent of differentiation was expressed as a multiple of the signal from the DMSO control.

[9] = both in vitro and in vivo; cited from earlier work
[10] = normal animals and animals depleted by cisplatin or fluorouracil; cited from earlier work
GSTπ = biological target: T4, GSTπ (Homo sapiens, UniProt P09211); experiment: GSTπ immunoprecipitation assay in HL60 cells; type: cell-based; conditions: HL-60, read-out: GSTπ inhibition, %
T4 construct: endogenous in cells; host or cells: HL-60 (human promyeloid myelocytic leukemia)
Protocol: In vitro example 3. GSTπ immunoprecipitation assay. This example illustrates the beneficial effects of compounds of this invention in causing GSTπ immunoprecipitation. […] HL60 cells were seeded at 6×10^5 cells/mL in 20 mL RPMI-1640 medium supplemented with 10% fetal bovine serum, 1 mM glutamine and 20 μM gentamycin in a T75 flask and cultured overnight in 5% CO2 atmosphere at 37° C. […] Following the treatment, the cells were collected by centrifugation and washed twice with phosphate-buffered saline. The cell pellets were resuspended in 1 mL lysis buffer (50 mM Tris, pH 8.0, 120 mM NaCl, 0.5% NP-40 surfactant, 100 mM NaF; to which protease and phosphatase inhibitors (Roche Diagnostics, Indianapolis, Ind., U.S.A.) had been added before use) and incubated with gentle agitation for 30 minutes at 4° C. The cell lysates were cleared by centrifugation at 13,000 rpm for 10 minutes to remove cell debris. […] Following overnight incubation at 4° C., 30 μL of Protein A/G agarose beads (Pierce, Rockford, Ill.) were added to the mixture and incubated for 1 hour at 4° C. […] GSTπ protein bands were visualized and band intensity quantified on Odyssey infrared scanner (Li-Cor, Lincoln, Nebr., U.S.A.). The band intensity from a compound treatment was compared to its corresponding DMSO control and expressed as percent inhibition.

[11] = biological target: T2, Recombinant human GST P1-1; conditions: background statement; read-out: GST P1-1 IC50 (related art statement); cited from earlier work

T2 sequence (P09211 2-210 limits assumed): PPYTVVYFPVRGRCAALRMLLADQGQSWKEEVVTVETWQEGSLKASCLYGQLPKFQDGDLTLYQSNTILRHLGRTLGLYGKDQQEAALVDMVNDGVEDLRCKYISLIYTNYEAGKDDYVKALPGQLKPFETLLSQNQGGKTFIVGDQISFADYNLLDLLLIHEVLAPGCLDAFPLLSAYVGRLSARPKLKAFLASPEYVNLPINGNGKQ
T4 sequence (P09211 2-210 limits assumed): as above

N[C@@H](CCC(=O)N[C@@H](CSCc1ccc(Cl)cc1)C(=O)N[C@@H](C(=O)O)c1ccccc1)C(=O)O [TLK137]
IC50 ([1]; diacid compounds, GSH and CDNB at 2×Km, pH 6.5, read-out: GST A1-1 IC50): 10 µM | IC50 ([2]; diacid compounds (1A to 12A, TLK117, TLK137), GSH and CDNB at 2×Km, pH 6.5): 52 nM | IC50 ([3]; diacid compounds, GSH and CDNB at 2×Km, pH 6.5, read-out: GST M1-1 IC50): 6.5 µM | CC50 [4]: 10 µM

CCOC(=O)[C@@H](N)CCC(=O)N[C@@H](CSCc1ccccc1)C(=O)N[C@@H](C(=O)OCC)c1ccccc1 [TLK199]
Hematologic improvement [5]: multilineage hematologic improvement | Tolerability [5]: well tolerated | Differentiation of HL-60 promyelocytic leukemia cells in vitro (HL-60 cells [6]): induce the differentiation | Colony formation of hematopoietic progenitor cells [7]: stimulate colony formation of all three lineages | Enhancement of differentiation of HL-60 cells (HL-60 cells [8]): enhances differentiation | Potentiation of the activity of cytotoxic agents [9]: potentiate the activity of cytotoxic agents | White blood cell production [10]: increase white blood cell production

N[C@@H](CCC(=O)N[C@@H](CSCc1ccccc1)C(=O)N[C@@H](C(=O)O)c1ccccc1)C(=O)O [TLK117, L-γ-glutamyl-S-(phenylmethyl)-L-cysteinyl-D-phenylglycine] (γGlu-Cys(Bn)-[dPhg]-OH)
IC50 [1]: 17 µM | inhibition at 20 µM (GSTπ): 90% | IC50 [2]: 409 nM | IC50 [11]: ~400 nM | IC50 [3]: 70 µM
